Measurements taken from patent publication US7893067B2, “Cysteine protease inhibitors” (Medivir AB, priority 2007, dated 2011).

Experiments:
[1] = Caco-2 permeability (Papp); format: in vitro ADME; details: human; Caco-2 assay, standard concentration 10 μM
Method: The transport plate comprises 3 rows of 4 wells.
Determination of the cumulative fraction absorbed, FAcum, versus time. FAcum is calculated from: […]
A linear relationship should be obtained.

[2] = biological target: T1, baculovirus-expressed human cathepsin S (Homo sapiens, UniProt P25774); experiment: Cathepsin S Ki determination; format: biochemical
T1 construct: made in house
T1 sequence (P25774 115-331): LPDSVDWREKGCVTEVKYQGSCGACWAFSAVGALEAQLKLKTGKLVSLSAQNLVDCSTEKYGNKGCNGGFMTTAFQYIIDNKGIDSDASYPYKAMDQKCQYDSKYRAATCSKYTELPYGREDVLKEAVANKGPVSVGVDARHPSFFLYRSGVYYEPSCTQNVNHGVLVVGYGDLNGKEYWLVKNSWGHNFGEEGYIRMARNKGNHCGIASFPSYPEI
Method: 280 μl/well of 12.5% DMSO are added to rows B-H of two columns of a 96 deep well polypropylene plate. 70 μl/well of substrate is added to row A. 2×250 μl/well of assay buffer (100 mM Na phosphate, 100 mM NaCl, pH 6.5) is added to row A, mixed, and double diluted down the plate to row H. 100 μl/well of assay buffer is added to columns 2-5 and 7-12 of 4 rows of a 96 well V bottom polypropylene plate. 200 μl/well of assay buffer is added to columns 1 and 6. […] Add 90 μl assay buffer containing 1 mM DTT and 2 nM cathepsin S to each well of rows B-H and 180 μl to row A. Mix row A using a multichannel pipette and double dilute to row G. Mix row H and read in the fluorescent spectrophotometer. […] The second test compound is added to column 6 of the top row, the third to column 1 of the second row etc. Add 1 μl of comparator to column 6 of the bottom row. Mix column 1 and double dilute to column 5. Mix column 6 and double dilute to column 10. Using an 8-channel multistepping pipette set to 5×10 μl, distribute 10 μl/well of substrate to the 384 well assay plate. Distribute the first column of the substrate dilution plate to all columns of the assay plate starting at row A. The tip spacing of the multichannel pipette will correctly skip alternate rows. Distribute the second column to all columns starting at row B. Using a 12-channel multistepping pipette set to 4×10 μl, distribute 10 μl/well of inhibitor to the 384 well assay plate. Distribute the first row of the inhibitor dilution plate to alternate rows of the assay plate starting at A1. The tip spacing of the multichannel pipette will correctly skip alternate columns. Similarly, distribute the second, third and fourth rows to alternate rows and columns starting at A2, B1 and B2 respectively. Mix 20 ml assay buffer and 20 μl 1M DTT. Add sufficient cathepsin S to give 2 nM final concentration. Using the a distributor such as a Multidrop 384, add 30 μl/well to all wells of the assay plate and read in fluorescent spectrophotomoter such as an Ascent. Fluorescent readings, (excitation and emission wavelengths 390 nm and 460 nm respectively, set using bandpass filters) reflecting the extent of enzyme cleavage of the fluorescent substrate, notwithstanding the inhibitor, are linear rate fitted for each well. Fitted rates for all wells for each inhibitor are fitted to the competitive inhibition equation using SigmaPlot 2000 to determine V, Km and Ki values. Potential inhibitors are screened using the above assay with variable concentrations of test compound. Reactions were initiated by addition of enzyme to buffered solutions of substrate and inhibitor. Ki values were calculated according to equation 1 [formula] where v0 is the velocity of the reaction, V is the maximal velocity, S is the concentration of substrate with Michaelis constant of KM, and/is the concentration of inhibitor.

human cathepsin L = human cathepsin L (Homo sapiens, UniProt P07711); experiment: Cathepsin L Ki; format: biochemical
Chain of human cathepsin L (P07711 114-333): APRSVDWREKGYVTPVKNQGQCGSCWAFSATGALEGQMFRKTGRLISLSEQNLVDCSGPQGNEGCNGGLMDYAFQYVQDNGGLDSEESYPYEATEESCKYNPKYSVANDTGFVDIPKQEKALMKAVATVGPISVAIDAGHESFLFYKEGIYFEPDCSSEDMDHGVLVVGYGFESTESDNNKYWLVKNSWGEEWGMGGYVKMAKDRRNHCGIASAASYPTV
Method: The procedure above with the following amendments is used for the determination of Ki for cathepsin L.
The enzyme is commercially available human cathepsin L (for example Calbiochem). The substrate is H-D-Val-Leu-Lys-AMC available from Bahcem. The assay buffer is 100 mM sodium acetate 1 mM EDTA, pH5.5) The DMSO stock (10 mM in 100% DMSO) is diluted to 10% in assay buffer. Enzyme is prepared at 5 nM concentration in assay buffer plus 1 mM dithiothreitol just before use. 2 ul of 10 mM inhibitor made up in 100% DMSO is dispensed into row A. 10 ul of 50 uM substrate (=1/200 dilution of 10 mM stock in DMSO, diluted in assay buffer)
(§1) Potential inhibitors are screened using the above assay with variable concentrations of test compound. Reactions were initiated by addition of enzyme to buffered solutions of substrate and inhibitor. Ki values were calculated according to equation 1
(§2) [formula] where v0 is the velocity of the reaction, V is the maximal velocity, S is the concentration of substrate with Michaelis constant of KM, and/is the concentration of inhibitor.

[3] = Metabolic stability in human hepatic cytosol assay; format: in vitro ADME; details: 2 μM in pooled human liver cytosol, 1 mg/mL protein, pH 7.4, 37°, 1 mM NADPH
Method: Compounds of the invention and the indicated comparative examples were tested for metabolic stability in a cytosol assay in which the compounds were incubated with commercially available human hepatic cytosol fractions and the disappearance of the compound monitored by HPLC or LC/MS. Pooled human liver cytosol fractions are less likely to represent outlier individuals than blood from a single individual and can be stored frozen, unlike whole blood. The cytosol assay thus provides a consistent assay testbed as a guide to the stability of a compound in the in vivo environment, such as when exposed to whole blood.
In short, test compounds (2 μM) are incubated in pooled human liver cytosol (Xenotech LLC Lenexa US, 1 mg/mL protein in 0.1M phosphate buffer, pH 7.4) at 37° centigrade over a one hour period. The incubations are initiated by the addition of 1 mM NADPH co-factor. Timed sub-samples were taken at 0, 20, 40 and 60 minutes and “crash precipitated” by the addition of 3 volumes of ice-cold acetonitrile. The samples were centrifuged at reduced temperature and the supernatants were separated and analyzed by LC-MS-MS.

[4] = biological target: T2, human recombinant cathepsin K (Homo sapiens, UniProt P43235); experiment: Determination of cathepsin K proteolytic catalytic activity (Ki); format: biochemical
T2 construct: made in house; host or cells: not fixed: E coli, Pichia or Baculovirus systems named as options
T2 sequence (P43235 115-329): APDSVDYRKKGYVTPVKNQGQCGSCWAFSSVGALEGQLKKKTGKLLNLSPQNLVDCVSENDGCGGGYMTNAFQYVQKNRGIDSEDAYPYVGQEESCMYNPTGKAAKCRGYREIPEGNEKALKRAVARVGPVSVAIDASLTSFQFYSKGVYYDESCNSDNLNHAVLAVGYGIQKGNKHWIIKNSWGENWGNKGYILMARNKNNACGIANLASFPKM
Method: Convenient assays for cathepsin K are carried out using human recombinant enzyme, such as that described in PDB.
The recombinant cathepsin K can be expressed in a variety of commercially available expression systems including E coli, Pichia and Baculovirus systems. The purified enzyme is activated by removal of the prosequence by conventional methods.
Standard assay conditions for the determination of kinetic constants used a fluorogenic peptide substrate, typically H-D-Ala-Leu-Lys-AMC, and were determined in either 100 mM Mes/Tris, pH 7.0 containing 1 mM EDTA and 10 mM 2-mercaptoethanol or 100 mM Na phosphate, imM EDTA, 0.1% PEG4000 pH 6.5 or 100 mM Na acetate, pH 5.5 containing 5 mM EDTA and 20 mM cysteine, in each case optionally with […] as stabiliser. The enzyme concentration used was 5 nM. The stock substrate solution was prepared at 10 mM in DMSO. Screens were carried out at a fixed substrate concentration of 60 μM and detailed kinetic studies with doubling dilutions of substrate from 250 μM. The total DMSO concentration in the assay was kept below 3%. All assays were conducted at ambient temperature. Product fluorescence (excitation at 390 nm, emission at 460 nm) was monitored with a Labsystems Fluoroskan Ascent fluorescent plate reader. Product progress curves were generated over 15 minutes following generation of AMC product.
as §1, §2

[5] = representative values from specific batches of compound/enzyme/assay occasion

`CC(C)C[C@H](NC(=O)c1ccc(-c2nc(N3CCN(C)CC3)sc2F)cc1)C(=O)N1C[C@@H](Cl)[C@H]2OCC(=O)[C@H]21` [Example 12, N-[1-(6-Chloro-3-oxo-hexahydro-furo[3,2-b]pyrrole-4-carbonyl)-3-methyl-butyl]-4-[5-fluoro-2-(4-methyl-piperazin-1-yl)-thiazol-4-yl]-benzamide] showed a Papp at 120 min, 10 μM [1] of 10 ×10⁻⁶ cm/s, a Ki ([2]; Table 1, class symbols) of over 10 µM and a Ki [2, 5] of 11 µM. For the same compound, the Ki (human cathepsin L; Table 1, class symbols) was 1 to 5 µM, the Ki (human cathepsin L; [5]) was 1.6 µM and the half-life at 2 μM [3] was 4.5 h. For the same compound, the Ki ([4]; Table 1, class symbols) was under 0.05 µM and the Ki [4, 5] was 0.0018 µM.
